Test results taken from patent publication US11787785B2 (NOVARTIS AG, priority 2021, dated 2023).

Target: T1, WIZ protein (HiBit-WIZ fusion protein) (Homo sapiens, UniProt O95785+Q96SW2)
T1 construct: expressed in transfected cells
Assay: Quantification of WIZ protein levels in HiBit tag fusion protein assay (WIZ HiBit assay in 293T cells)
Assay type: cell-based
Set-up: remaining activity / Dmax: dose or concentration left out as unconfirmed
Conditions: for Dmax at 25 µM: 100 − Amax; for Dmax at 25 µM / remaining activity at 25 µM: 293T cells; for remaining activity at 25 µM: DMSO-normalized, curve-fitted percentage of WIZ-HiBit remaining at 25 uM; for DC50: WIZ HiBit assay in 293T cells, 10-point, 5-fold dose response, highest concentration 25 μM, about 18 hours, read-out: WIZ AC50
Summary of the method: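 Luminescence after LgBit complementation quantified remaining HiBit-WIZ in lysates of single-copy stable 293T lines. Cells dosed ~18 h at 37 °C with 10-point, 5-fold dilutions (highest 25 μM); DMSO set to 100%, fitted curve gave % remaining at 25 μM (Amax).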

[1] = HEK-293T, read-out: % degradation of WIZ (100 − Amax)

T1 sequence (O95785 whole entry, the tested form may be a part): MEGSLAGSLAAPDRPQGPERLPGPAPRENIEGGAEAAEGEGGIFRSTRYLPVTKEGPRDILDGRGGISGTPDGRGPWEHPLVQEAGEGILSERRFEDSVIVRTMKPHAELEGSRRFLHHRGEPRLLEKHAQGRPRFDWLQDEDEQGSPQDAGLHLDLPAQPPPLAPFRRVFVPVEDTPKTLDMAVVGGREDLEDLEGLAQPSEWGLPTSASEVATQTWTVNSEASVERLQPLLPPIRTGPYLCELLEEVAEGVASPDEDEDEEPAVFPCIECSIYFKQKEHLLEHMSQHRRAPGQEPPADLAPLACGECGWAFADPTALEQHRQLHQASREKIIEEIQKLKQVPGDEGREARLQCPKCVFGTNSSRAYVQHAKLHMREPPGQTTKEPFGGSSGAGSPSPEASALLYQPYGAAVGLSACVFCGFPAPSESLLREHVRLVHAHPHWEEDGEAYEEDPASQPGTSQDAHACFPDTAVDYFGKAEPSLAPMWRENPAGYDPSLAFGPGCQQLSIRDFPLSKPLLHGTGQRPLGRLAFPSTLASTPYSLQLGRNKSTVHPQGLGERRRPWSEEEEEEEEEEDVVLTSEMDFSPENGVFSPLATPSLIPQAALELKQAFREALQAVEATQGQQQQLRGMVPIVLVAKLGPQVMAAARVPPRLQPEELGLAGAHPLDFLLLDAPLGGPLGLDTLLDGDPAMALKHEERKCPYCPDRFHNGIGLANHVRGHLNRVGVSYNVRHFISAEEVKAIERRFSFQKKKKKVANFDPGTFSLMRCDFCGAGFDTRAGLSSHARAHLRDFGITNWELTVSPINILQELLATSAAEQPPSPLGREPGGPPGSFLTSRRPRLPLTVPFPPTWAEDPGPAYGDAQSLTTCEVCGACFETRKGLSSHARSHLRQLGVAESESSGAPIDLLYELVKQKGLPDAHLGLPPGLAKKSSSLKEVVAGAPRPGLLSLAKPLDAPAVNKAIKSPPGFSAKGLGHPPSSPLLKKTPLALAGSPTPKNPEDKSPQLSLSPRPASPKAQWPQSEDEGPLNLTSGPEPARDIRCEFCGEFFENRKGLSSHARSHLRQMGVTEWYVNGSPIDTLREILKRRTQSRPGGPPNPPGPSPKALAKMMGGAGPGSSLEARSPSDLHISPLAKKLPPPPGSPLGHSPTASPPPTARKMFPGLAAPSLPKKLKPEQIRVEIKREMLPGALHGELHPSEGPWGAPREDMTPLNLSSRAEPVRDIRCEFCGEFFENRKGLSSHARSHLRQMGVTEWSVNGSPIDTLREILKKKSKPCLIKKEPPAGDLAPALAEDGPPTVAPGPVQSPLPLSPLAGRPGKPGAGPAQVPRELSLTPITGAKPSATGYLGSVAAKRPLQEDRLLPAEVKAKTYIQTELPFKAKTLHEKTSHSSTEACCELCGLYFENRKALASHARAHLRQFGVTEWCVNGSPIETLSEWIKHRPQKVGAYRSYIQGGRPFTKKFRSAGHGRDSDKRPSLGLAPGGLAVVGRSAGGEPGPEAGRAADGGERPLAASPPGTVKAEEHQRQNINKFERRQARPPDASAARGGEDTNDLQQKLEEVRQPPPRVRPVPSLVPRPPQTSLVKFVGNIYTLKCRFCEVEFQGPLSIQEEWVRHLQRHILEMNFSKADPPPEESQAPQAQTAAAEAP
T1 sequence (Q96SW2 whole entry, the tested form may be a part): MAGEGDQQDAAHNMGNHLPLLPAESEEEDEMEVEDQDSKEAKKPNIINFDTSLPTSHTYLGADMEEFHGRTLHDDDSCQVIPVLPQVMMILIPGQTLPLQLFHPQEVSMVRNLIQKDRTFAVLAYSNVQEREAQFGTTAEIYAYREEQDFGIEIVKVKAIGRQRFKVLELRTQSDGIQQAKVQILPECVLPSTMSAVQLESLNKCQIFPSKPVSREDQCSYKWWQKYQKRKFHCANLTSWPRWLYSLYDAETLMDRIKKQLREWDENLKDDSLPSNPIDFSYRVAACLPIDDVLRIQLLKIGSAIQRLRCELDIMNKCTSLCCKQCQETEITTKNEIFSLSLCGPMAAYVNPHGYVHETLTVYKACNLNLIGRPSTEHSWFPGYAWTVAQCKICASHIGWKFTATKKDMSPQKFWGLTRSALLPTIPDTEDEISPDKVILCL
T1 sequence (Q16531 whole entry partner, the tested form may be a part): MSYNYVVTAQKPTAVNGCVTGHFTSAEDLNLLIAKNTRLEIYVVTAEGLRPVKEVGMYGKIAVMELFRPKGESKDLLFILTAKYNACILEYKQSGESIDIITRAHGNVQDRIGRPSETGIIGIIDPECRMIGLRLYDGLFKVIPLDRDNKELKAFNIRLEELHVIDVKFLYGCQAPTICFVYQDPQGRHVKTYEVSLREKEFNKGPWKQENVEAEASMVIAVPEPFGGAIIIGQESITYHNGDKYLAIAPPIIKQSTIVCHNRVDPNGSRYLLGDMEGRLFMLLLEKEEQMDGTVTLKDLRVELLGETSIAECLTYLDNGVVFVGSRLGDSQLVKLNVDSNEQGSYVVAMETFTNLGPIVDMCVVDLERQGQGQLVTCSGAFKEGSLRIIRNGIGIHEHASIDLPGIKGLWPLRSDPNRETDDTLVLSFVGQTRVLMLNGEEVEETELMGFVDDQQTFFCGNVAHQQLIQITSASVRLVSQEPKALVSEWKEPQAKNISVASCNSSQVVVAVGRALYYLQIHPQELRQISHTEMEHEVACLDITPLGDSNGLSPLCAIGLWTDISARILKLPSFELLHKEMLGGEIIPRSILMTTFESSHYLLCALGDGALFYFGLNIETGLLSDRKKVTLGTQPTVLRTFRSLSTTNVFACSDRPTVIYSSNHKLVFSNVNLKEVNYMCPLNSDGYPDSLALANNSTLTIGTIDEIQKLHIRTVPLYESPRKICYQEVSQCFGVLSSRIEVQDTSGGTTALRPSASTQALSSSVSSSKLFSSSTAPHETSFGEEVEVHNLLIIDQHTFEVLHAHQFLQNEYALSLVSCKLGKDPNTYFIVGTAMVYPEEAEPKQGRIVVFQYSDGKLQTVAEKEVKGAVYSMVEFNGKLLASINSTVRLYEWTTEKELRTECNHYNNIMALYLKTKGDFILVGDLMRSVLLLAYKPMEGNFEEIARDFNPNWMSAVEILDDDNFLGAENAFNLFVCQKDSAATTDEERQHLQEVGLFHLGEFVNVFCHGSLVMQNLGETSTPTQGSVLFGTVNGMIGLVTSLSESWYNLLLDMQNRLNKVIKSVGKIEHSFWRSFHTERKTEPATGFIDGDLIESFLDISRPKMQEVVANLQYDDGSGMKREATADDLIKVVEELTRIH

Dmax at 25 µM [1] [%]	remaining activity at 25 µM (HEK-293T, read-out: WIZ Amax) [%]	DC50 [nM]	Structure (SMILES)	Dmax [1] [%]	remaining activity (HEK-293T, read-out: WIZ Amax) [%]
0	100	> 25000	CC(C)CN1CCN(Cc2ccn3ncc(N4CCC(=O)NC4=O)c3c2)C(=O)C1 [Example 254, 1-(5-((4-isobutyl-2-oxopiperazin-1-yl)methyl)pyrazolo[1,5-a]pyridin-3-yl)dihydropyrimidine-2,4(1H,3H)-dione]	–	–
0	100	> 25000	O=C1CCN(c2cnn3ccc(CN4CCN(CC5CCCCC5)CC4=O)cc23)C(=O)N1 [Example 255, 1-(5-((4-(cyclohexylmethyl)-2-oxopiperazin-1-yl)methyl)pyrazolo[1,5-a]pyridin-3-yl)dihydropyrimidine-2,4(1H,3H)-dione]	–	–
78	22	186	C[C@@H]1CN(Cc2ccn3ncc(N4CCC(=O)NC4=O)c3c2)C[C@H](C)N1CC1CCOCC1 [Example 256, 1-(5-(((3S,5R)-3,5-dimethyl-4-((tetrahydro-2H-pyran-4-yl)methyl)piperazin-1-yl)methyl)pyrazolo[1,5-a]pyridin-3-yl)dihydropyrimidine-2,4(1H,3H)-dione]	–	–
74	26	101	CC(C)CN1[C@H](C)CN(Cc2ccn3ncc(N4CCC(=O)NC4=O)c3c2)C[C@@H]1C [Example 257, 1-(5-(((3S,5R)-4-isobutyl-3,5-dimethylpiperazin-1-yl)methyl)pyrazolo[1,5-a]pyridin-3-yl)dihydropyrimidine-2,4(1H,3H)-dione]	–	–
69	31	148	C[C@H]1CN(Cc2ccn3ncc(N4CCC(=O)NC4=O)c3c2)C[C@H](C)N1CC1CCCCC1 [Example 258, 1-(5-(((3S,5S)-4-(cyclohexylmethyl)-3,5-dimethylpiperazin-1-yl)methyl)pyrazolo[1,5-a]pyridin-3-yl)dihydropyrimidine-2,4(1H,3H)-dione]	–	–
61	39	258	CC(C)CN1[C@@H](C)CN(Cc2ccn3ncc(N4CCC(=O)NC4=O)c3c2)C[C@@H]1C [Example 259, 1-(5-(((3S,5S)-4-isobutyl-3,5-dimethylpiperazin-1-yl)methyl)pyrazolo[1,5-a]pyridin-3-yl)dihydropyrimidine-2,4(1H,3H)-dione]	–	–
68	32	796	O=C1CCN(c2cnn3ccc(CN4CCN5CCC[C@H]5C4)cc23)C(=O)N1 [Example 260, (S)-1-(5-((hexahydropyrrolo[1,2-a]pyrazin-2(1H)-yl)methyl)pyrazolo[1,5-a]pyridin-3-yl)dihydropyrimidine-2,4(1H,3H)-dione]	–	–
63	37	417	O=C1CCN(c2cnn3ccc(CN4CCN5CCC[C@@H]5C4)cc23)C(=O)N1 [Example 261, (R)-1-(5-((hexahydropyrrolo[1,2-a]pyrazin-2(1H)-yl)methyl)pyrazolo[1,5-a]pyridin-3-yl)dihydropyrimidine-2,4(1H,3H)-dione]	–	–
68	32	583	O=C1CCN(c2cnn3ccc(CN4CCN5CCCC[C@H]5C4)cc23)C(=O)N1 [Example 262, (S)-1-(5-((octahydro-2H-pyrido[1,2-a]pyrazin-2-yl)methyl)pyrazolo[1,5-a]pyridin-3-yl)dihydropyrimidine-2,4(1H,3H)-dione]	–	–
55	45	880	O=C1CCN(c2cnn3ccc(CN4CCN5CCOC[C@H]5C4)cc23)C(=O)N1 [Example 263, (R)-1-(5-((hexahydropyrazino[2,1-c][1,4]oxazin-8(1H)-yl)methyl)pyrazolo[1,5-a]pyridin-3-yl)dihydropyrimidine-2,4(1H,3H)-dione]	–	–
64	36	260	O=C1CCN(c2cnn3ccc(CN4CCN5CCOC[C@@H]5C4)cc23)C(=O)N1 [Example 264, (S)-1-(5-((hexahydropyrazino[2,1-c][1,4]oxazin-8(1H)-yl)methyl)pyrazolo[1,5-a]pyridin-3-yl)dihydropyrimidine-2,4(1H,3H)-dione]	–	–
81	19	44	CCO[C@H]1CC[C@H](CN2CCC(Cc3ccn4ncc(N5CCC(=O)NC5=O)c4c3)CC2)CC1 [Example 266, 1-(5-((1-(((1r,4r)-4-ethoxycyclohexyl)methyl)piperidin-4-yl)methyl)pyrazolo[1,5-a]pyridin-3-yl)dihydropyrimidine-2,4(1H,3H)-dione]	–	–
86	14	100	CC(C)CN1CCC(C(C)c2ccn3ncc(N4CCC(=O)NC4=O)c3c2)CC1 (stereo not drawn) [Example 267, 1-(5-(1-(1-isobutylpiperidin-4-yl)ethyl)pyrazolo[1,5-a]pyridin-3-yl)dihydropyrimidine-2,4(1H,3H)-dione]	–	–
89	11	24	C[C@H]1C[C@H](Cc2ccn3ncc(-n4ccc(=O)[nH]c4=O)c3c2)CCN1CC1CCC(F)(F)CC1 [Example 268, 1-(5-(((2S,4R)-1-((4,4-difluorocyclohexyl)methyl)-2-methylpiperidin-4-yl)methyl)pyrazolo[1,5-a]pyridin-3-yl)pyrimidine-2,4(1H,3H)-dione]	–	–
49	51	1020	O=C1CCN(c2cnn3ccc(CC4CCCNCC4)cc23)C(=O)N1 (stereo not drawn) [Example 269, 1-(5-(azepan-4-ylmethyl)pyrazolo[1,5-a]pyridin-3-yl)dihydropyrimidine-2,4(1H,3H)-dione]	–	–
57	43	99	CC(C)(C)OC(=O)N1CCCC(Cc2ccn3ncc(N4CCC(=O)NC4=O)c3c2)CC1 (stereo not drawn) [Example 270, tert-butyl 4-((3-(2,4-dioxotetrahydropyrimidin-1(2H)-yl)pyrazolo[1,5-a]pyridin-5-yl)methyl)azepane-1-carboxylate]	–	–
63	37	702	CN1CCCC(Cc2ccn3ncc(N4CCC(=O)NC4=O)c3c2)CC1 (stereo not drawn) [Example 271, 1-(5-((1-methylazepan-4-yl)methyl)pyrazolo[1,5-a]pyridin-3-yl)dihydropyrimidine-2,4(1H,3H)-dione]	–	–
69	31	25	O=C1CCN(c2cnn3ccc(CC4CCCN(CC5CCCCC5)CC4)cc23)C(=O)N1 (stereo not drawn) [Example 272, 1-(5-((1-(cyclohexylmethyl)azepan-4-yl)methyl)pyrazolo[1,5-a]pyridin-3-yl)dihydropyrimidine-2,4(1H,3H)-dione]	–	–
77	23	32	C[C@H]1C[C@H](Cc2ccn3ncc(N4CCC(=O)NC4=O)c3c2)CCN1CC(F)F [Example 274, 1-(5-(((2S,4R)-1-(2,2-difluoroethyl)-2-methylpiperidin-4-yl)methyl)pyrazolo[1,5-a]pyridin-3-yl)dihydropyrimidine-2,4(1H,3H)-dione]	–	–
79	21	20	C[C@H]1C[C@H](Cc2ccn3ncc(N4CCC(=O)NC4=O)c3c2)CCN1CC(F)(F)F [Example 275, 1-(5-(((2S,4R)-2-methyl-1-(2,2,2-trifluoroethyl)piperidin-4-yl)methyl)pyrazolo[1,5-a]pyridin-3-yl)dihydropyrimidine-2,4(1H,3H)-dione]	–	–
84	15	9	C[C@H]1C[C@H](Cc2ccn3ncc(N4CCC(=O)NC4=O)c3c2)CCN1CCC(F)(F)F [Example 276, 1-(5-(((2S,4R)-2-methyl-1-(3,3,3-trifluoropropyl)piperidin-4-yl)methyl)pyrazolo[1,5-a]pyridin-3-yl)dihydropyrimidine-2,4(1H,3H)-dione]	–	–
76	24	203	C[C@H]1C[C@H](Cc2ccn3ncc(N4CCC(=O)NC4=O)c3c2)CCN1CC1CCO1 (stereo partly drawn) [Example 277, 1-(5-(((2S,4R)-2-methyl-1-(oxetan-2-ylmethyl)piperidin-4-yl)methyl)pyrazolo[1,5-a]pyridin-3-yl)dihydropyrimidine-2,4(1H,3H)-dione]	–	–

Structure (SMILES)	Dmax at 25 µM [1] [%]	remaining activity at 25 µM (HEK-293T, read-out: WIZ Amax) [%]	DC50 [nM]	Dmax [1] [%]	remaining activity (HEK-293T, read-out: WIZ Amax) [%]
O=C1CCN(c2cnn3ccc(CN4C[C@H]5CC[C@@H](C4)N5CC4CCCCC4)cc23)C(=O)N1 [Example 252, 1-(5-(((1R,5S)-8-(cyclohexylmethyl)-3,8-diazabicyclo[3.2.1]octan-3-yl)methyl)pyrazolo[1,5-a]pyridin-3-yl)dihydropyrimidine-2,4(1H,3H)-dione]	42	58	277	–	–
O=C1CCN(c2cnn3ccc(CN4C[C@H]5CC[C@@H](C4)N5Cc4cccnc4)cc23)C(=O)N1 [Example 253, 1-(5-(((1R,5S)-8-(pyridin-3-ylmethyl)-3,8-diazabicyclo[3.2.1]octan-3-yl)methyl)pyrazolo[1,5-a]pyridin-3-yl)dihydropyrimidine-2,4(1H,3H)-dione]	23	77	531	–	–
C[C@H]1C[C@H](Cc2ccn3ncc(N4CCC(=O)NC4=O)c3c2)CCN1CC(F)(F)C(F)F [Example 273, 1-(5-(((2S,4R)-2-methyl-1-(2,2,3,3-tetrafluoropropyl)piperidin-4-yl)methyl)pyrazolo[1,5-a]pyridin-3-yl)dihydropyrimidine-2,4(1H,3H)-dione]	–	–	40	78	22
